Data taken from patent publication US20210198269A1, “INHIBITORS OF GLUCOSE TRANSPORTERS (GLUTs)” (LEAD DISCOVERY CENTER GMBH, priority 2018, published 2021).
pIC50: −log10 of the molar value.

Legend:
Assay type in all cases: cell-based
[1] = biological target: T1, GLUT1 (Homo sapiens, UniProt P11166); assay: GLUT1 transporter activity assay (2-DG uptake) in DLD1 cells; conditions: DLD1 cell line; read-out: GLUT1 inhibitory activity (IC50)
T1 construct: host or cells: DLD-1 (DLD1) cells
T1 sequence (P11166 1-492): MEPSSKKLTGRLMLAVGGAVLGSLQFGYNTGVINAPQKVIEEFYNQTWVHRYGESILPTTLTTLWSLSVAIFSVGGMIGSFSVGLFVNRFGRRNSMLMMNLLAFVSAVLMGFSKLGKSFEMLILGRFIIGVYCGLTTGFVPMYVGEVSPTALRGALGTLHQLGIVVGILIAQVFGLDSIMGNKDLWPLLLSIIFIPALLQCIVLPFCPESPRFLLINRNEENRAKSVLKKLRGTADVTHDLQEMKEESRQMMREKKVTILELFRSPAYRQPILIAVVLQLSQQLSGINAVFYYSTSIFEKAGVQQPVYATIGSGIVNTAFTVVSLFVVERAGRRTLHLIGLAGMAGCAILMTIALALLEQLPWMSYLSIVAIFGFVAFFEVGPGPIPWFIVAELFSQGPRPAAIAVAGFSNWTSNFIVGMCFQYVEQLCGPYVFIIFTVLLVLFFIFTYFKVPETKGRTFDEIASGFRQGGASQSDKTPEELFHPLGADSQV
From the text: (§1) GLUT 1, 2, 3 and 4 Transporter Activity Assays
(§2) Assays were based on the specificity assays reported by Kapoor et al., Proceedings of the National Academy of Sciences 2016, 113 (17) 4711-4716. For GLUT1, GLUT2, GLUT3 and GLUT4 specificity testing DLD1, CHO-hGLUT2, DLD-1-GLUT1−/− and CHO-hGLUT4 cell lines were used.
(§3) Assay protocols for 2-deoxy-Glucose (2-DG) Uptake Assay with DLD1 or DLD1-Glut1(−/−) cells or 7,000 CHOK1-SLC2A4 cells lines:
(§4) 14,000 DLD1 or DLD1-Glut1(−/−) cells or 7,000 CHOK1-SLC2A4 cells were seeded in black, clear bottom 384-well plates in glucose- and phenolred-free RPMI1640 medium supplemented with 1% FCS and 2 mM L-glutamine and allowed to attach overnight. Next day, cells were washed and incubated with compounds or DMSO and 1 mM 2-DG in glucose- and phenolred-free RPMI1640 medium for 30 min. Cells were then washed and lysed in 0.06 M HCl and 1% CHAPS for 15 min at 65° C. The amount of 2-DG in the lysate was determined by means of enzyme-coupled assay. For this 16 U/mL glucose-6-phosphate dehydrogenase, 0.2 U/mL diaphorase, 0.1 mM NADP^+ and 10 μM resazurin were added to the lysates. Resorufin fluorescence was determined as a measure of 2-DG uptake at ex/em 535/590 nm with a Victor Multilabel plate reader (Perkin Elmer). Blank values were subtracted from all readings and values were normalized to the DMSO control.

[2] = biological target: T2, GLUT2 (Homo sapiens, UniProt P11168); assay: GLUT2 transporter activity assay in CHO-hGLUT2 cells (indirect, intracellular ATP levels); conditions: CHO-hGLUT2 cell line; read-out: GLUT2 inhibitory activity (IC50)
T2 sequence (P11168 1-524): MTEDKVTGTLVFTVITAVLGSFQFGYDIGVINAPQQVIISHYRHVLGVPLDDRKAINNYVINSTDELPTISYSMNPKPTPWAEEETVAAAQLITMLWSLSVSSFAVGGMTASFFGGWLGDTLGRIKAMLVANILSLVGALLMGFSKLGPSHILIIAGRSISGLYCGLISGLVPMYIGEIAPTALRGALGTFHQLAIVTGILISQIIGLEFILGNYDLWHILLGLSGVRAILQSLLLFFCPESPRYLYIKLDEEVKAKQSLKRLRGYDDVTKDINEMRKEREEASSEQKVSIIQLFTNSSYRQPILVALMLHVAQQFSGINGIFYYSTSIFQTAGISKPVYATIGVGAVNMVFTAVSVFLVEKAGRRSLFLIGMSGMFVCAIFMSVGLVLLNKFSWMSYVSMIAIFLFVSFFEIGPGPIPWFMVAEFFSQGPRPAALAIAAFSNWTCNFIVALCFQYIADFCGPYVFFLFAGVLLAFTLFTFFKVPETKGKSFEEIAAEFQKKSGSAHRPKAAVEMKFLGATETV
From the text: as §1, §2
Example 8-3: Indirect Measurement of GLUT2 (SLC2A2) Activity by Quantification of Intracellular ATP Levels
A combination of small-molecule inhibitors of mitochondrial electron transport chain and glucose catabolism synergistically suppress ATP production and impair cellular viability (Ulanovskaya et al., 2008, 2011; Liu, et al. 2001). We therefore used CHOK1 cells overexpressing SLC2A2 (CHOK1-SLC2A2) in combination with an oxidative phosphorylation inhibitor (Rotenon) to identify GLUT2 inhibitors. CHOK1-SLC2A2 cells were purchased from creative biogene (catNo: CSC-SC014484) and maintained in RPMI1640 supplemented with 10% FBS and 2 mM L-Glutamine. For the Glut2-ATP-Assay, 7,500 cells were seeded in black, clear bottom 384-well plates directly in glucose- and phenolred-free RPMI1640 medium supplemented with 1% FCS and 2 mM L-glutamine and cultured overnight to reduce intracellular ATP levels. Next day, cells were washed and incubated with […] and compounds or DMSO and 2.5 mM fructose in glucose- and phenolred-free RPMI1640 medium for 40 min. The CellTiter-Glo® Luminescence Viability Assay from Promega was used to measure ATP levels. Luminescence was measured with a Victor Multilabel plate reader (Perkin Elmer). Blank values were subtracted from all readings and values were normalized to the DMSO control.

[3] = biological target: T3, GLUT3 (Homo sapiens, UniProt P11169); assay: GLUT3 transporter activity assay (2-DG uptake) in DLD-1-GLUT1-/- cells; conditions: DLD-1-GLUT1-/- cell line; read-out: GLUT3 inhibitory activity (IC50)
T3 construct: host or cells: DLD-1-GLUT1(-/-) cells
T3 sequence (P11169 1-496): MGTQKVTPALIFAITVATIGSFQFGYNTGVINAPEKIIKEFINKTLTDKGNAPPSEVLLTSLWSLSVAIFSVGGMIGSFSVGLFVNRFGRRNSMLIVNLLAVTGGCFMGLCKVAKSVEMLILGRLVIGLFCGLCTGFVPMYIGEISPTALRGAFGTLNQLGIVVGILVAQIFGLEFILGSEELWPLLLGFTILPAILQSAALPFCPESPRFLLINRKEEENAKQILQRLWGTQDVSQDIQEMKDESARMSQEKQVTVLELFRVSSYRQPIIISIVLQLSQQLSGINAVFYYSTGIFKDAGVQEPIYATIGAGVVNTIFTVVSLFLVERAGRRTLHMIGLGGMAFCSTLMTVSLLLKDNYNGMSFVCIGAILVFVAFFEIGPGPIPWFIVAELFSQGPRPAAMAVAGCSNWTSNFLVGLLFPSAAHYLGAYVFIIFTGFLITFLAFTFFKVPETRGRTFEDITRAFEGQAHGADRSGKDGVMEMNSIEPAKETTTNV
From the text: as §1, §2, §3, §4

[4] = biological target: T4, GLUT4 (Homo sapiens, UniProt P14672); assay: GLUT4 transporter activity assay (2-DG uptake) in CHO-hGLUT4 cells; conditions: CHO-hGLUT4 cell line; read-out: GLUT4 inhibitory activity (IC50)
T4 sequence (P14672 1-509): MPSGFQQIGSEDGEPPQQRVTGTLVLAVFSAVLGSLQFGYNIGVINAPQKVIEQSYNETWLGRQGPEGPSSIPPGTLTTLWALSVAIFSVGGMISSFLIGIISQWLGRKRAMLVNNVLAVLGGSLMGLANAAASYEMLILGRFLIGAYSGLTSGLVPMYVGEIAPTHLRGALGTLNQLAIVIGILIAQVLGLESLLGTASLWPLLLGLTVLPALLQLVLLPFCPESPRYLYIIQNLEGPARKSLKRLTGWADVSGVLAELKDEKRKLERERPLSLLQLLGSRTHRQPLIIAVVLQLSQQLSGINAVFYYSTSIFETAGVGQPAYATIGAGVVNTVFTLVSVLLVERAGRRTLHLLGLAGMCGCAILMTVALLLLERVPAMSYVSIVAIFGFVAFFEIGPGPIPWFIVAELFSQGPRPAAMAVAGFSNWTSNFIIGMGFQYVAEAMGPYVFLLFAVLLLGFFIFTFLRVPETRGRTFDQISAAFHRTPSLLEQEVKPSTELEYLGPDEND
Method: CHOK1-SLC2A4 cells were generated by transfection of CHOK1 cells with pCMV6-Entry-GLUT4 (Origene #SC125240) using Lipofectamin2000 according to the supplier's instructions. Briefly, 1.5E5 cells/well CHOK1 cells were seeded in 6-well cell culture plates. After overnight incubation, DNA-lipid complexes (2 μg plasmid DNA, DNA:lipid ratio 1:10) were prepared in OptiMEM and then added to the cells. After 5 days incubation, 800 μg G418 was added to the culture medium to generate a stable polyclone. For monoclone selection, single cells were re-plated in 96-well plates, expanded and selected by transgene overexpression and functional performance.
as §1, §2, §3, §4

SMILES	pIC50 [1]	pIC50 [2]	pIC50 [3]	pIC50 [4]
Cc1ccc(CCNC(=O)c2cccc(N3C(=O)NC4CC3(C)Oc3c(OCc5ccccc5)cccc34)c2)cc1 (centres unmarked) [Compound A01, 3-(10-(Benzyloxy)-2-methyl-4-oxo-5,6-dihydro-2H-2,6-methanobenzo[g][1,3,5]oxadiazocin-3(4H)-yl)-N-(4-methylphenethyl)benzamide]	≥ 6.52	4.60 to 5.00	≥ 6.52	4.60 to 5.00
Cc1ccc(CCNC(=O)c2cccc(N3C(=O)NC4CC3(C)Oc3c(OCc5cccnc5)cccc34)c2)cc1 (centres unmarked) [Compound A10, 3-(2-Methyl-4-oxo-10-(pyridin-3-ylmethoxy)-5,6-dihydro-2H-2,6-methanobenzo[g][1,3,5]oxadiazocin-3(4H)-yl)-N-(4-methylphenethyl)benzamide]	≥ 6.52	5.00 to 5.40	6.00 to 6.52	5.00 to 5.40
Cc1ccc(CCNC(=O)c2cccc(N3C(=O)NC4CC3(C)Oc3c(OCc5ccccn5)cccc34)c2)cc1 (centres unmarked) [Compound A11, 3-(2-Methyl-4-oxo-10-(pyridin-2-ylmethoxy)-5,6-dihydro-2H-2,6-methanobenzo[g][1,3,5]oxadiazocin-3(4H)-yl)-N-(4-methylphenethyl)benzamide]	≥ 6.52	5.00 to 5.40	≥ 6.52	5.40 to 6.00
Cc1ccc(CCNC(=O)c2cccc(N3C(=O)NC4CC3(C)Oc3c(OCc5c(C)noc5C)cccc34)c2)cc1 (centres unmarked) [Compound A15, 3-(10-((3,5-Dimethylisoxazol-4-yl)methoxy)-2-methyl-4-oxo-5,6-dihydro-2H-2,6-methanobenzo[g][1,3,5]oxadiazocin-3(4H)-yl)-N-(4-methylphenethyl)benzamide]	6.00 to 6.52	4.60 to 5.00	6.00 to 6.52	5.00 to 5.40
Cc1ccc(CCNC(=O)c2cccc(N3C(=O)NC4CC3(C)Oc3c(OCc5nccn5C)cccc34)c2)cc1 (centres unmarked) [Compound A16, 3-(2-Methyl-10-((1-methyl-1H-imidazol-2-yl)methoxy)-4-oxo-5,6-dihydro-2H-2,6-methanobenzo[g][1,3,5]oxadiazocin-3(4H)-yl)-N-(4-methylphenethyl)benzamide]	5.40 to 6.00	< 4.60		< 4.60
CC12CC(NC(=O)N1c1cccc(C(=O)NCCOc3ccccc3)c1)c1cccc(OCc3ccccc3)c1O2 (centres unmarked) [Compound A21, 3-(10-(benzyloxy)-2-methyl-4-oxo-5,6-dihydro-2H-2,6-methanobenzo[g][1,3,5]oxadiazocin-3(4H)-yl)-N-(2-phenoxyethyl)benzamide]	5.40 to 6.00	< 4.60	5.40 to 6.00	4.60 to 5.00
Cc1ccc(CCN(C)C(=O)c2cccc(N3C(=O)NC4CC3(C)Oc3c(OCc5ccccc5)cccc34)c2)cc1 (centres unmarked) [Compound A23, 3-(10-(benzyloxy)-2-methyl-4-oxo-5,6-dihydro-2H-2,6-methanobenzo[g][1,3,5]oxadiazocin-3(4H)-yl)-N-methyl-N-(4-methylphenethyl)benzamide]	6.00 to 6.52	< 4.60	6.00 to 6.52	5.00 to 5.40
CC12CC(NC(=O)N1c1cccc(C(=O)NCCCc3ccccc3)c1)c1cccc(OCc3ccccc3)c1O2 (centres unmarked) [Compound A33, 3-(10-(benzyloxy)-2-methyl-4-oxo-5,6-dihydro-2H-2,6-methanobenzo[g][1,3,5]oxadiazocin-3(4H)-yl)-N-(3-phenylpropyl)benzamide]	6.00 to 6.52	< 4.60	6.00 to 6.52	5.40 to 6.00
Cc1ccc(OCCNC(=O)c2cccc(N3C(=O)NC4CC3(C)Oc3c(OCc5ccccc5)cccc34)c2)cc1 (centres unmarked) [Compound A35, 3-(10-(benzyloxy)-2-methyl-4-oxo-5,6-dihydro-2H-2,6-methanobenzo[g][1,3,5]oxadiazocin-3(4H)-yl)-N-(2-(4-methylphenoxy)ethyl)benzamide]	6.00 to 6.52	< 4.60	6.00 to 6.52	4.60 to 5.00
CC12CC(NC(=O)N1c1cccc(C(=O)NCc3ccccc3)c1)c1cccc(OCc3ccccc3)c1O2 (centres unmarked) [Compound A39, 3-(10-(benzyloxy)-2-methyl-4-oxo-5,6-dihydro-2H-2,6-methanobenzo[g][1,3,5]oxadiazocin-3(4H)-yl)-N-(benzyl)benzamide]	4.60 to 5.00		5.00 to 5.40	4.60 to 5.00
